The source of these data is patent publication US6338962B1, “Use of a non-mammalian DNA virus to express an exogenous gene in a mammalian cell” (priority 1996, dated 2002).

Assay [1] has as its system HepG2 cells. In words: De novo expression test with inhibitors, β-galactosidase in extracts. It is filed as cell-based, human.
Procedure: Second, HepG2 cells were infected with the RSV-lacZ virus and then cultured in the presence of the protein synthesis inhibitor cycloheximide.
To determine whether endosome acidification was necessary for baculovirus-mediated gene transfer into mammalian cells, HepG2 cells were infected with RSV-lacZ AcMNPV in the presence of chloroquine, a lysomotropic agent. HepG2 cells were exposed to AcMNPV virus in media containing or lacking inhibitor for 90 minutes, then the virus-containing media were removed and replaced with fresh media containing or lacking inhibitors as listed.
At one day post-infection, the cells were harvested and extracts were assayed for β-galactosidase activity and protein content. Each value in the table represents the average of three independent assays, with the amount of β-galactosidase produced by the RSV-lacZ AcMNPV virus in the absence of inhibitors assigned a value of 100%. β-galactosidase activity was normalized for protein content of each extract.
The test system of the next assay is Hep G2. As to the kind of experiment: Comparison of promoter strengths, β-galactosidase ONPG assay. It is filed as cell-based, human. The following applies: for Promoter strength, β-galactosidase: moi 100, 24 hours, mock background subtracted. The text has this:
Baculovirus-mediated Gene Transfer is Enhanced by Butyrate: This example illustrates that butyrate enhances the ability of a baculovirus to express an exogenous gene in a mammalian cell. Five transfer plasmids containing different mammalian promoters were created, as diagrammed in FIG. 18. These vectors were constructed using pSV/BV, a modified version of the baculovirus transfer plasmid pBacPAK9 (Clontech), containing an altered polylinker and SV40 splice and polyadenylation signals. pSV/BV was constructed by restriction of pBacPAK9 with NotI, treatment with T4 DNA polymerase to create blunt ends, and self-ligation to remove the NotI site. A new NotI site was then added by ligation of the linker p[…] into the SmaI site. Finally, SV40 splice and polyadenylation sequences were added by digestion of a variant of pRSVglobin with BglII-BamHI, and insertion of the 850 bp fragment into the BamHI site of the modified BacPAK9, yielding pSV/BV. The human cytomegalovirus immediate early promoter, 758 bp HindIII-XbaI fragment, was excised from PCMV-EBNA (Invitrogen) at HindIII, BamHI and inserted into the HindIII, BamHI sites of pBluescript (SKII^+), yielding plasmid pCMV-SKII^+. The promoter was then excised from CMV-SK II^+ at the XhoI, BamHI sites and inserted into the XhoI, BglII sites of pSV/BV, yielding plasmid pCMV/BV. The 500 bp mouse phosphoglycerate kinase (PGK) promoter was prepared by cutting pKJ1-neo (Tybulewicz et al., 1991, Cell 65: 1153-1163) with EcoRI and made blunt with T4 DNA polymerase to remove the EcoRI site. The resulting pKJ1 plasmid lacking the EcoRI site was amplified by pfu polymerase chain reaction using the primers 5′ […]3′ (SEQ ID NO: 5) and 5′ […]3′ (SEQ ID NO: 6). The amplified PGK promoter was then digested with XhoI and BglII and inserted into the same sites of pSV/BV yielding PKJ1/BV. The 345 bp rat β-actin promoter was excised from pINA (6) at BglII, BamHI and inserted into the BglII site of pSV/BV yielding pβ-actin/BV. The 2.3 kb albumin enhancer and 700 bp albumin promoter were excised from pGEMAlbSVPA (Zaret et al., 1988, Proc. Natl. Acad. Sci. 85:9076-9080) at NaeI, NsiI and inserted into the SmaI, PstI sites of pSV/BV. The RSVlacZ transfer plasmid used (also referred to herein as the Z4 virus) is described above. A 3.0 kb Lac Z cassette was inserted into the NotI site of all of the plasmids constructed (See FIG. 18).
Recombinant viruses were generated by contransfection of the baculovirus transfer vectors with linear BP6 viral DNA (Clontech) into Sf21 cells. The recombinant viruses were purified through three rounds of plaque isolation and amplified on Sf21 cells. The amplified viruses were concentrated by ultracentrifugation as described above and titered by a 96-well method on Sf21 insect cells (O'Reilly et al., 1992, Baculovirus Expression Vectors: A Laboratory Manual, W.H. Freeman, New York, N.Y.).
The human hepatocellular carcinoma cell line HepG2 was infected with each recombinant virus at a multiplicity of infection of 100. Two million cells were infected in a final volume of 1 ml Eagle's Minimum Essential Medium in a 60 mm tissue culture dish. The infection was allowed to proceed for two hours, then 4 ml of complete medium was added to the cells. In a second series of HepG2 infections, the conditions of the first infections were repeated with the exception that after the infection had proceeded for 2 hours 25 μl of sodium butyrate (100 mM) was added to the cells with 1.5 ml complete media. […]

The test system of assay [2] is HepG2 cells. In words: X-gal histochemical staining of infected cells. It is filed as cell-based, human. To be noted: moi 100. Here is the method: […] Adherent cell lines were seeded one day prior to infection. Cells were exposed to virus in 2 ml of medium for 90 minutes, and then the virus-containing medium was removed and replaced with fresh medium. Mock-infected cells were treated with 2 ml medium lacking the viral inoculum.
For histochemical staining of β-galactosidase activity, cells were fixed in 2% (w/v) formaldehyde-0.2% (v/v) […] in PBS for 5 minutes. After several rinses with PBS, the cells were stained by the addition of 0.5 mg/ml of X-gal (BRL) in PBS for 2-4 hours at 37° C.

In a further assay the test system is Rat Hepatocytes. In words: Comparison of promoter strengths, β-galactosidase ONPG assay. It is filed as cell-based. The following applies: Rat Hepatocytes −butyrate.

On to `CCN(CC)CCCC(C)Nc1ccnc2cc(Cl)ccc12` (stereo not drawn) [chloroquine], for which, in the assay on HepG2 cells [1] (25 μM continuously present during and after exposure to virus), the “effect on de novo expression of β-galactosidase” value was “completely prevented”. The “effect on β-galactosidase expression” value with HepG2 cells [1] (added at 90 minutes after exposure to the virus) was “only partial inhibition”.
With `CCCC(=O)[O-].[Na+]` [sodium butyrate, reference compound], the “effect of addition after infection on β-galactosidase expression” value in the assay on Hep G2 (HepG2, added 2 hours after start of infection) is on record as “detectable levels of β-galactosidase expression with all of the promoters tested”.
As to Albumin, the “X-gal staining of cells not treated with butyrate” value with HepG2 cells [2] is reported as “positively stained cells were detected”. The “Promoter strength, β-galactosidase” value is 0.08 ± 0.04 Units/mg with Hep G2 (Hep G2 +butyrate); 0.0 ± 0.0 Units/mg with Hep G2 (Hep G2 −butyrate); “no activity above background levels” in the assay on Hep G2 (Hep G2 −butyrate, listed as albumin); 0.15 ± 0.08 Units/mg with Rat Hepatocytes. Moreover, the “change of gene expression after treatment with butyrate” value in the assay with Hep G2 (HepG2) is recorded as “increased gene expression”.
